In patent US11499197B2, “Prognosis method of multiple myeloma” (CENTRE NATIONAL DE LA RECHERCHE SCIENTIFIQUE, priority 2017, dated 2022):

Key:
[1] = tested on: primary MM cells from patients; experiment: Primary myeloma cell cytotoxicity (CD138 flow cytometry); type: cell-based, human; conditions: N=5 patients, 4 days of treatment
Excerpt: FIG. 16 represents graphs showing the % of CD138+ cells after treatment by AZD7762, OTSSP167 and Centrinone B in 5 different primary MM cells.
FIG. 17 represents graphs showing that the three tested inhibitors reduce % of tumor MM cells without toxicity on normal BM microenvironment cells from patients (N=5). CD138 amount was monitored by flow cytometry after 4 days of treatment.
Bone marrow of patients presenting with previously untreated MM (N=5) at the university hospital of Montpellier was obtained after patients' written informed consent in accordance with the Declaration of Helsinki and agreement of the Montpellier University Hospital Centre for Biological Resources (DC-2008-417). Primary myeloma cells of patients were cultured with or without graded concentrations of selected inhibitors and MMC cytotoxicity evaluated using anti-CD138-Phycoerythrin monoclonal antibody and CD38-Allophycocyanin (Beckman-Coulter) as described (Moreaux et al., 2012).

AMO1 HMCL [2] = experiment: Cell cycle analysis by flow cytometry; type: cell-based, human; conditions: for cell cycle arrest: AMO1, single agent; for cell cycle arrest on co-treatment with melphalan or lenalidomide: AMO1, 4 days co-treatment
Excerpt: FIG. 15 represents graphs showing the effects of the treatments with inhibitors on cell cycle in AMO1 cells. p-value: *<0.05; **<0.01; ***<0.001.
FIG. 29 represents graphs illustrating that Co-treatments differentially affect cell cycle in AMO1 cell line. Cotreatment with Melphalan or Lenalidomide and A) AZD7762; B) OTSSP167; C) Centrinone B; D) XL413. Cell cycle was monitored by flow cytometry after 4 days co-treatments. p-value: *<0.05; **<0.01; ***<0.001.
(§1) Cells were culture in 12 wells plate for 4 days. Apoptotic cells were detected using phycoerythrin-conjugated Annexin V (PE-annexin V, BD Pharmingen). For the cell cycle and DNA damage, we used the Apoptosis, DNA damage and cell proliferation kit (BD), following the manufacturer's protocol.

[3] = tested on: HMCLs (AMO1, OPM2, XG1, XG21); experiment: HMCL viability, single and co-treatment with conventional MM drugs (CTG); type: cell-based, human; conditions: for synergy with lenalidomide / Lenalidomide treatment on co-treatment with kinase inhibitor / synergy with melphalan: inhibitor at IC20; for synergy with lenalidomide / synergy with melphalan: XG1, XG21, AMO1, OPM2; for Lenalidomide treatment on co-treatment with kinase inhibitor: AMO1 and OPM2
Protocol: (§2) AMO-1 and OPM2 HMCLs were purchased from DSMZ (Braunschweig, Germany), XG1 and XG21 were obtained as described (Moreaux et al., 2011). HMCLs were cultured in RPMI 1640 medium, 10% FCS (control medium). For XG-IL-6 dependent HMCLs 2 ng/ml IL-6 was added. Cells were cultured in 96-well flat-bottom microtiter plates in the presence of a concentration range of selected compounds: AZD7762 and OTSSP167 (Selleck, euromedex), HITOPK032, XL413, SRPIN340 (Sigma), AZ3146, Centrinone B (Tocris). Cell Titer Glo Luminescent Assay (Promega, Madison, Wis., USA) was used to assess cell viability, and the 50% inhibition (IC50) was determined using GraphPad Prism software (http://www.graphpad.com/scientific-software/prism/).
(§3) Statistical comparisons were done with unpaired or paired Student's t-tests. The effect of drug combination was evaluated using the methods developed by Chou and Talalay (Chou and Talalay, 1984) by calculating the combination Index (CI), with CI<1, CI=1, and CI>1 respectively indicating synergism, additive effects, and antagonism. Here we used CI=0.90-1.10 to indicated additivity.
Keeping in mind the main objective of identifying alternative and efficient complementary treatment for MM patients, the inventors next performed co-treatment on HMCLs with commonly used therapeutic drugs in MM (e.g. Melphalan, Lenalidomide, Velcade) and the different kinases inhibitors. In order to fit to the goal of a combination treatment the inventors used an arbitrary […] for all the kinases inhibitors, which the inventors associated with various concentration of the standard therapeutic.

OPM2 = experiment: Cell Titer Glo viability, OPM2 HMCL; type: cell-based, human; conditions: OPM2, CTG viability
Protocol: as §2, §3

[4] = tested on: normal BM microenvironment cells from patients; experiment: Toxicity on non-tumoral bone marrow cells in primary patient cultures; type: cell-based, human; conditions: N=5 patients, 4 days
Excerpt: CD138 amount was monitored by flow cytometry after 4 days of treatment.

XG1 = experiment: Cell Titer Glo viability, XG1 HMCL; type: cell-based, human; conditions: XG1, CTG viability
Protocol: as §2, §3

AMO1 HMCL [5] = experiment: Apoptosis (annexin V, PARP cleavage) by flow cytometry; type: cell-based, human; conditions: for cell death via apoptosis (annexin) on co-treatment: AMO1, sub-lethal Melphalan or Lenalidomide + inhibitor at IC20, 4 days
Excerpt: FIG. 14 represents graphs showing that inhibitors increase apoptosis (annexin and PARP) in AMO1 cell line; Annexin and PARP were monitored by flow cytometry after 4 days treatments. p-value: *<0.05; **<0.01; ***<0.001.
FIG. 25 represents graphs illustrating that the co-treatments induce cell death and differentially affect DNA damages in AMO1 HMCL. Co-treatment with selected kinase inhibitors at IC20 and Melphalan or Lenalidomide.
as §1

[6] = tested on: primary Mouse myeloma (5T33vv) and mouse myeloma cell line (5T33vt); experiment: Mouse myeloma cell viability (CTG); type: cell-based; conditions: 5T33vv and 5T33vt, CTG after 24, 48 or 96 hours
Protocol: FIG. 18 represents graphs cell viability of primary Mouse myeloma (5T33vv) and mouse myeloma cell line (5T33vt), monitored by CTG after 24, 48 or 96 hours treatment with indicated inhibitors.

XG21 = experiment: Cell Titer Glo viability, XG21 HMCL; type: cell-based, human; conditions: XG21, CTG viability
Protocol: as §2, §3

AMO1 = experiment: Cell Titer Glo viability, AMO1 HMCL; type: cell-based, human; conditions: for IC20 / IC50: AMO1, CTG viability
Protocol: as §2, §3

XG7 WT and XG7 Mres = experiment: Viability of melphalan sensitive and resistant cell lines (CTG); type: cell-based, human; conditions: inhibitor at IC20
Protocol: FIG. 32 represents a graph of the calculated IC50 for the co-treatment with melphalan and selected kinase inhibitors at IC20. Melphalan sensitive (XG7 WT) and Resistant (XG7 MRes) cell lines were treated for 4 days with the selected kinases inhibitors. Cell viability was monitored by the CTG. p-value: *<0.05; **<0.01; ***<0.001.
The facts that: 1) all drugs tested are actively decreasing HMCLs viability and induce apoptosis; 2) co-treatment with melphalan leads to synergy or potentialized the decrease of cell viability; 3) some of the selected kinases inhibitors can reverse the resistance to lenalidomide in AMO1 HMCL, led us to question the capability of these drugs to reverse or reduce also melphalan resistance. In that purpose, the inventors used a cell line developed in the inventors' laboratory, and that has been culture to resist to melphalan (Mres) compare to its negative control (WT) (FIG. 30). The inventors first tested the capacity of the different inhibitors to reduce cell viability in this model. All tested kinase's inhibitors lower cell viability of the control or the melphalan resistant cell line.

AMO1 HMCL [7] = experiment: DNA damage (γH2AX) by flow cytometry; type: cell-based, human; conditions: for γH2AX (DNA damages), used alone: AMO1, 4 days
Excerpt: FIG. 27 represents graphs illustrating that the co-treatments induce cell death and differentially affect DNA damages in AMO1 HMCL.
FIG. 28 represents graphs representing DNA damages following SRPIN340 and AZ3146 co-treatment in AMO1 cell line. γH2AX were monitored by flow cytometry after 4 days treatments. p-value: *<0.05; **<0.01; ***<0.001.
as §1

Compound | cell cycle arrest (AMO1 HMCL [2]) | synergy with lenalidomide [3] | IC50 (OPM2) | IC50 (XG1) | cell death via apoptosis (annexin) on co-treatment (AMO1 HMCL [5]) | IC50 (XG21) | IC20 (AMO1) | IC50 (AMO1) | synergy with melphalan [3] | γH2AX (DNA damages), used alone (AMO1 HMCL [7]) | other results
COc1c(Nc2cc(C)[nH]n2)nc(Sc2ccc(S(=O)(=O)Cc3cccc([N+](=O)[O-])c3F)cc2F)nc1N1CCCCC1 [Centrinone-B] | arrested the cell cycle in G0/G1 | synergized with the conventional treatment | 0.44 µM | 226 nM | potentialized cell death only with lenalidomide | 1.39 µM | 24 nM | 0.421 µM | – | – | number of tumoral cells (CD138+) [1]: reduced the number of tumoral cells; effect on non-tumoral cells [4]: barely affected; cell viability in mouse cellular model of multiple myeloma [6]: less effective on cell viability
N#Cc1c2nc3ccccc3nc2n2ccc(NC(=O)c3cccs3)cc12 [HI)TOPK] | – | synergized with the conventional treatment | 5 µM | 4400 nM | – | 4.1 µM | 3900 nM | 5.1 µM | synergized with the conventional treatment | – | melphalan resistance on co-treatment with melphalan (XG7 WT and XG7 Mres): reversed the melphalan resistance; Lenalidomide treatment on co-treatment with kinase inhibitor [3]: potentialized
CC(=O)c1cnc2ccc(-c3cc(Cl)c(O)c(Cl)c3)nc2c1N[C@H]1CC[C@H](CN(C)C)CC1 [OTSSP167] | arrested the cells in S phase | synergized with the conventional treatment | – | – | increase cell death via apoptosis | – | – | – | synergized with the conventional treatment | showed an activity on […]H2AX recruitment when used alone | number of tumoral cells (CD138+) [1]: reduced the number of tumoral cells; γH2AX (DNA damages) on co-treatment with melphalan (AMO1 HMCL [7]; AMO1, inhibitor at IC20, 4 days): significantly potentialized the melphalan co-treatment by increasing […]H2AX; cell cycle arrest on co-treatment with melphalan or lenalidomide (AMO1 HMCL [2]): no differences between single and co-treatment; Lenalidomide treatment on co-treatment with kinase inhibitor [3]: potentialized; IC50 (OPM2; Homo sapiens, OPM-2): 0.016 µM; effect on non-tumoral cells [4]: barely affected; IC50 (XG1; Homo sapiens): 12 nM; cell viability in mouse cellular model of multiple myeloma [6]: demonstrated similar efficiency; IC50 (XG21; Homo sapiens): 0.002 µM; IC20 (AMO1; Homo sapiens): 5.4 nM; IC50 (AMO1; Homo sapiens): 0.0082 µM
O=C(Nc1cc(C(F)(F)F)ccc1N1CCCCC1)c1ccncc1 [SRPIN340] | – | synergized with the conventional treatment | 33.2 µM | 30100 nM | didn't have any significant additional effect on cell death | 25.8 µM | 30000 nM | 43.3 µM | – | showed an activity on […]H2AX recruitment when used alone | apoptosis as measured by annexin V staining and PARP clivage (AMO1 HMCL [5]; AMO1, single agent, 2 concentrations surrounding IC50, 4 days): all drugs but SRPIN340/SRPK1 induced apoptosis
Cl.O=c1[nH]c([C@@H]2CCCN2)nc2c1oc1ccc(Cl)cc12 [XL413] | arrested the cells in S phase | – | 24.5 µM | 4200 nM | increase cell death via apoptosis | 30.3 µM | 9400 nM | 19.9 µM | synergized with the conventional treatment | showed an activity on […]H2AX recruitment when used alone | melphalan resistance on co-treatment with melphalan (XG7 WT and XG7 Mres): reversed the melphalan resistance; cell cycle arrest on co-treatment with melphalan or lenalidomide (AMO1 HMCL [2]): no differences between single and co-treatment
Nc1cccc2c1CN(C1CCC(=O)NC1=O)C2=O (stereo not shown) [lenalidomide] | – | – | – | – | – | – | – | – | – | didn't demonstrate any particular effect | Lenalidomide effect on viability alone or in combination ([3]; lenalidomide resistant HMCLs XG1 and XG21): no effect of the treatment alone or in combination; Lenalidomide IC50, treatment alone (AMO1; AMO1): undetermined
N[C@@H](Cc1ccc(N(CCCl)CCCl)cc1)C(=O)O [melphalan] | – | – | – | – | – | – | – | – | – | increased the measured […]H2AX | –
AZ3146 | arrested the cell cycle in G0/G1 | – | 1.9 µM | 1200 nM | didn't have any significant additional effect on cell death | 3 µM | 1400 nM | 2.6 µM | – | – | –
